The source of these data is PMC8213057, “Targeting ALK2: An Open Science Approach to Developing Therapeutics for the Treatment of Diffuse Intrinsic Pontine Glioma” (Journal of Medicinal Chemistry, 2020).

One experiment deals with SRPK2 (Homo sapiens, UniProt P78362). The experiment is described as follows: biochemical. To be noted: read-out: % enzyme activity, 1 μM; Run 1, Run 2.
For another experiment, the target named is T1, GRK2 (Homo sapiens, UniProt P25098).
T1 sequence (P25098 1-689): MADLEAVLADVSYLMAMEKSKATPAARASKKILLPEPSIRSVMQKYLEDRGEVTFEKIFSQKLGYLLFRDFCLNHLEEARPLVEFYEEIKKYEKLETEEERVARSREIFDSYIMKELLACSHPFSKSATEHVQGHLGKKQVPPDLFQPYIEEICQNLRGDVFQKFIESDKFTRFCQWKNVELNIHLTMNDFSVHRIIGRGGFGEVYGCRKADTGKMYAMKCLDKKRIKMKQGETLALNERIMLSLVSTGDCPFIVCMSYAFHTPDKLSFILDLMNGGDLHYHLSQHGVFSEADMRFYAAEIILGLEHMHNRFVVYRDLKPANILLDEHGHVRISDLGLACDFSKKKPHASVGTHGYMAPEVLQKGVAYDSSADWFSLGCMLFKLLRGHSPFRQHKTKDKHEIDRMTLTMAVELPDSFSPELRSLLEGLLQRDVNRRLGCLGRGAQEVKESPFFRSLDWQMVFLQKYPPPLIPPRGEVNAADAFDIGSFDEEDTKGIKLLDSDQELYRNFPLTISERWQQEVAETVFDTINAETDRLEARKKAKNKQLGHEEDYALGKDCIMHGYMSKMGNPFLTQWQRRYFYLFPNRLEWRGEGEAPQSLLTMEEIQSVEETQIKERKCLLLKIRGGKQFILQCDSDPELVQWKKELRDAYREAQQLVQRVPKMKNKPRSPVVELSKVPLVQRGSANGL
To be noted: 1 μM; Run 1, Run 2.

A further experiment concerns the target HIPK3 (Homo sapiens, UniProt Q9H422). The experiment is described as follows: biochemical. To be noted: read-out: % enzyme activity, 1 μM; Run 1, Run 2.
The target of the next experiment is RSK1 (Homo sapiens, UniProt Q15418). To be noted: 1 μM; Run 1, Run 2.
RSK1, sequence (Q15418 whole entry): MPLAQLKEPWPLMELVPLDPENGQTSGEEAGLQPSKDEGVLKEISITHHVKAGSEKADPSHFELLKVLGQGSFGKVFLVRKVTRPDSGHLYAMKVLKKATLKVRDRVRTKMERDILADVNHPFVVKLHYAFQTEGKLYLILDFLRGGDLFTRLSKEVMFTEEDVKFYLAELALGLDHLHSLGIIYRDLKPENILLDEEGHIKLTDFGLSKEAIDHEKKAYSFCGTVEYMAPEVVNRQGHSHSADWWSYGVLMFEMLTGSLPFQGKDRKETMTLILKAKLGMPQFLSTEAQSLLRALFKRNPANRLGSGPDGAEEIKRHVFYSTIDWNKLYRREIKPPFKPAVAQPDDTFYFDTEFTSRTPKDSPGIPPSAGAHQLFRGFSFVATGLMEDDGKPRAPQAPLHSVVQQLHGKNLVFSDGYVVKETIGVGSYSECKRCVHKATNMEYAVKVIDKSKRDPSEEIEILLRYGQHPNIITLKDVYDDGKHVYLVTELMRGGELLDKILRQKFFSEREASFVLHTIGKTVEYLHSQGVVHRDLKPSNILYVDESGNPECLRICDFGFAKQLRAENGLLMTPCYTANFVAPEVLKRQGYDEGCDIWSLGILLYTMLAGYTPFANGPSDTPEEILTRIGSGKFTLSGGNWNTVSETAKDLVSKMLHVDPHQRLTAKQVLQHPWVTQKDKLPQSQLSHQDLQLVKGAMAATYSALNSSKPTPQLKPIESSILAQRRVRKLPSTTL
Another experiment deals with T2, MARK4 (Homo sapiens, UniProt Q96L34).
T2 sequence (Q96L34 1-752): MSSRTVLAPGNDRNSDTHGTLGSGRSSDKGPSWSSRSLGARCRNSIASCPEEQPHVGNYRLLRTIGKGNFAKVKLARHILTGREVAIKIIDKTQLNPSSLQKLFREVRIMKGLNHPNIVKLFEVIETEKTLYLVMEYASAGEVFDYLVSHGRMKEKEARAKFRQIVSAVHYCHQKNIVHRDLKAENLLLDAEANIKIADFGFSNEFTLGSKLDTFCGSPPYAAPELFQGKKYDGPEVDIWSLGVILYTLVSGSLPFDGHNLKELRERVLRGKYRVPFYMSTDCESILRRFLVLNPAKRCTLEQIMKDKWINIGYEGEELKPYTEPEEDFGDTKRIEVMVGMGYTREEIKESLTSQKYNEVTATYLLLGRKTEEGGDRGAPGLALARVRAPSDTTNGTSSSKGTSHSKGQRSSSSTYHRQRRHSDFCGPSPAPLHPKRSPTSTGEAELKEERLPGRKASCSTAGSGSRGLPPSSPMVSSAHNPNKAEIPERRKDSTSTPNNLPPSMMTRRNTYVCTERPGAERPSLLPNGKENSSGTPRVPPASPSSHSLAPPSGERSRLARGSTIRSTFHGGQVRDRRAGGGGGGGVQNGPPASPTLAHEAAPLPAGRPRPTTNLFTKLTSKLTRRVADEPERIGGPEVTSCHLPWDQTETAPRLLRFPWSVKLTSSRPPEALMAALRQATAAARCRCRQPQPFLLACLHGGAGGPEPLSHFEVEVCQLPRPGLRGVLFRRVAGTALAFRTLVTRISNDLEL
Description: biochemical. To be noted: read-out: % enzyme activity, 1 μM; Run 1, Run 2.

Another experiment deals with RSK3 (Homo sapiens, UniProt Q15349). The experiment is described as follows: biochemical. To be noted: read-out: % enzyme activity, 1 μM; Run 1, Run 2.
RSK3, sequence (Q15349 whole entry): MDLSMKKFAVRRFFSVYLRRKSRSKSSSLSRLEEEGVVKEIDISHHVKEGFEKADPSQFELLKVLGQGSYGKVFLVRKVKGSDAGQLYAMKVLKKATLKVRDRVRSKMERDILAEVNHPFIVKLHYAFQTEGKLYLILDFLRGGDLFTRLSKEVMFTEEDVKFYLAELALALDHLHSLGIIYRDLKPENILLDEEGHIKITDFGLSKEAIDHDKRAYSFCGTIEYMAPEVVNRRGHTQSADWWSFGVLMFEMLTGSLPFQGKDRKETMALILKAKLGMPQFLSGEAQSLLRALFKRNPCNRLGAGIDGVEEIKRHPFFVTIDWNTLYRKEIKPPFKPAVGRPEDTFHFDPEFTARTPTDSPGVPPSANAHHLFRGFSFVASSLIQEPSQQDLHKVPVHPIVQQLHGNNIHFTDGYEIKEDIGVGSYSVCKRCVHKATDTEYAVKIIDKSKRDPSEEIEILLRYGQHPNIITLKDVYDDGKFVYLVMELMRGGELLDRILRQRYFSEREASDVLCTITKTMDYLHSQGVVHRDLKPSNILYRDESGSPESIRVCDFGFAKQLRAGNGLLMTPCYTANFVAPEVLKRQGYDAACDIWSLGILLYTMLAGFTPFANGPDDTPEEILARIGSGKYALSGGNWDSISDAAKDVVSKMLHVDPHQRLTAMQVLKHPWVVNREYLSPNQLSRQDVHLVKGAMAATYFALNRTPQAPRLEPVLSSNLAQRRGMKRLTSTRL
The target of a further experiment is T3, LCK2/ICK (Homo sapiens, UniProt Q9UPZ9).
T3 sequence (Q9UPZ9 1-632): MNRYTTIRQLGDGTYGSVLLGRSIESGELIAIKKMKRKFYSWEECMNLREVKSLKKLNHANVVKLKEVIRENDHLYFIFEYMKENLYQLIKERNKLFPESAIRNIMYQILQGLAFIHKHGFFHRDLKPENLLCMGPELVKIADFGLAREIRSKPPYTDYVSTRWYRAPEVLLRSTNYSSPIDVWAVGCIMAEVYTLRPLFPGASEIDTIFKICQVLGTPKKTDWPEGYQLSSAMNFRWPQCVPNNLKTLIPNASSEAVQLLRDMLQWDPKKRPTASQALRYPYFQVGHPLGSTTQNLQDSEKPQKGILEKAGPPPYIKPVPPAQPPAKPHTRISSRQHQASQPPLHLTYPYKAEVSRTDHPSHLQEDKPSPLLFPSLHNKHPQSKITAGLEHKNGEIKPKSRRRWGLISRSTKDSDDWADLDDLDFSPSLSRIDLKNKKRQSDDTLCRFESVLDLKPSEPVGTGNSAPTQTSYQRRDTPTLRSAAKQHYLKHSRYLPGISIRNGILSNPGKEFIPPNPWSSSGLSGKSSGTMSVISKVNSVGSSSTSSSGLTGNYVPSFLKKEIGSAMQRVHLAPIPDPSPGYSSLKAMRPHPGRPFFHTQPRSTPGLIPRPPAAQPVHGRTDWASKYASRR
The experiment is described as follows: biochemical. To be noted: read-out: % enzyme activity, 1 μM; Run 1, Run 2.

A further experiment addresses CDK5/p35 (Homo sapiens, UniProt Q00535). The experiment is described as follows: biochemical. To be noted: read-out: % enzyme activity, 1 μM; Run 1, Run 2.
The target of the next experiment is DAPK1 (Homo sapiens, UniProt P53355). To be noted: 1 μM; Run 1, Run 2.
DAPK1, sequence (P53355 whole entry): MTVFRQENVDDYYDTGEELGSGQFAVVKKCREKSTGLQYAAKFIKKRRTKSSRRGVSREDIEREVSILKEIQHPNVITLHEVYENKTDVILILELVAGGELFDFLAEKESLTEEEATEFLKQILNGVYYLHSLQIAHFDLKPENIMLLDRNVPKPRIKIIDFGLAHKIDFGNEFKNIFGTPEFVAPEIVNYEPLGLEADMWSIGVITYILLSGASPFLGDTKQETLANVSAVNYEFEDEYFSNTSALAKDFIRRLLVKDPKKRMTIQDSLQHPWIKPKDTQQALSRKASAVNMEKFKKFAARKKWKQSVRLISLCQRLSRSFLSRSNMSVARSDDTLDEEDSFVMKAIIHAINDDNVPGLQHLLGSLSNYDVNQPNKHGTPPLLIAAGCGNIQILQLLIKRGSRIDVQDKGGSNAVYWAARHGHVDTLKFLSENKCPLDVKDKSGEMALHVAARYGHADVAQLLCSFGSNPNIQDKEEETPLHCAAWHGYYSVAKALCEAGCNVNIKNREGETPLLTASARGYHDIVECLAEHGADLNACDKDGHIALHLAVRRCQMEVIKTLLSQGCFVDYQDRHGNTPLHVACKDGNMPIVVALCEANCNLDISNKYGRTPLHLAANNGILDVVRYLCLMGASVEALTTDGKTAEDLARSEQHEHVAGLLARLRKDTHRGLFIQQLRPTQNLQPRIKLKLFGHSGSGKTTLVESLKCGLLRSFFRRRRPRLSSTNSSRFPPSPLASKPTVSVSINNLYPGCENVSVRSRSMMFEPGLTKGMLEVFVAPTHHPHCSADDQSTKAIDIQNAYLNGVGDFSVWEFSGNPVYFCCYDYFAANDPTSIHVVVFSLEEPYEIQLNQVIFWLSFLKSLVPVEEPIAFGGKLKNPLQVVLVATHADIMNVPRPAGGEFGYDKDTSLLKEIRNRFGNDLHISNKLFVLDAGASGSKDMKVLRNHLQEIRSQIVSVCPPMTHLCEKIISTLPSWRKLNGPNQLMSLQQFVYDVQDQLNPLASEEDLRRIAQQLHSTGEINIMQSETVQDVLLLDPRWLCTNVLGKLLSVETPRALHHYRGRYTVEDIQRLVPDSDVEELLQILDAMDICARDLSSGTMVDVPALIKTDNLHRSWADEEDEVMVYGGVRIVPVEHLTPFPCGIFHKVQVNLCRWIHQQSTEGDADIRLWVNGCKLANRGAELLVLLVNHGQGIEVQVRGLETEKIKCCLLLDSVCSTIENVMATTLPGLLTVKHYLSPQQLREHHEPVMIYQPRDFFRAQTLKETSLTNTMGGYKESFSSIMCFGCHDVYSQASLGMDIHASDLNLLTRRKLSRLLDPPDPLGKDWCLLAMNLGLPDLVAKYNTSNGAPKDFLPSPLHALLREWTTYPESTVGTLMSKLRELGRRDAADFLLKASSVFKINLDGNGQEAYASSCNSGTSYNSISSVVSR

HIPK3, sequence (Q9H422 whole entry): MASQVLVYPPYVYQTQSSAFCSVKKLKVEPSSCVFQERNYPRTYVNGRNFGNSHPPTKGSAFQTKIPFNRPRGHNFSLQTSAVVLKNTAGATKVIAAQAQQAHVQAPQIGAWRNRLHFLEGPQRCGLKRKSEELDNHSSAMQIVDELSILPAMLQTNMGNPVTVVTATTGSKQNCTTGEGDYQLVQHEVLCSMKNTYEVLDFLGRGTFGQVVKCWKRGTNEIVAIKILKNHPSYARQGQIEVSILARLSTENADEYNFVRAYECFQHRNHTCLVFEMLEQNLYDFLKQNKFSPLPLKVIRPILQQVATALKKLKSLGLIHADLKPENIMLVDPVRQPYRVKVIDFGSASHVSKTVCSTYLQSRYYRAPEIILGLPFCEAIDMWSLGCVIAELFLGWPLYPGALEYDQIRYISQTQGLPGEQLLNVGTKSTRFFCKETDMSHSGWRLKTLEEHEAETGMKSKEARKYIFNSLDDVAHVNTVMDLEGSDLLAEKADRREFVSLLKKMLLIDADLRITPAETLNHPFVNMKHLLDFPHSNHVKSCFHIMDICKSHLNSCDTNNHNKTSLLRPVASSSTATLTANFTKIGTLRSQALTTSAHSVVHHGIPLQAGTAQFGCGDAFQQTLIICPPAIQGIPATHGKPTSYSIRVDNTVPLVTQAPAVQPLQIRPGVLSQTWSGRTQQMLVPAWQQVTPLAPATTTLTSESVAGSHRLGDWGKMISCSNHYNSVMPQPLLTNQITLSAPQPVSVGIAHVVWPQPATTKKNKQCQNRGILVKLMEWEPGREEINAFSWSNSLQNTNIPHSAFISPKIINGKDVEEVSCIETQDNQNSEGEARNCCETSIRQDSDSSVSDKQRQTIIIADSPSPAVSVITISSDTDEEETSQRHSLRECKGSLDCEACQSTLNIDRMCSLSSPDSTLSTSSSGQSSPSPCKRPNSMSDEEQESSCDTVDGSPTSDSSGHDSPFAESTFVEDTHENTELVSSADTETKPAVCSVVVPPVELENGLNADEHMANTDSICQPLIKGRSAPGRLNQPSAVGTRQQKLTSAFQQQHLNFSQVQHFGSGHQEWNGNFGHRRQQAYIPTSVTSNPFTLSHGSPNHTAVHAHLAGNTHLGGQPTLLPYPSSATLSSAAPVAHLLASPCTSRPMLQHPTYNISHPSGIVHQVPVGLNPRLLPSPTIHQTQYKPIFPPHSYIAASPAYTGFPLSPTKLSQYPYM
SRPK2, sequence (P78362 whole entry): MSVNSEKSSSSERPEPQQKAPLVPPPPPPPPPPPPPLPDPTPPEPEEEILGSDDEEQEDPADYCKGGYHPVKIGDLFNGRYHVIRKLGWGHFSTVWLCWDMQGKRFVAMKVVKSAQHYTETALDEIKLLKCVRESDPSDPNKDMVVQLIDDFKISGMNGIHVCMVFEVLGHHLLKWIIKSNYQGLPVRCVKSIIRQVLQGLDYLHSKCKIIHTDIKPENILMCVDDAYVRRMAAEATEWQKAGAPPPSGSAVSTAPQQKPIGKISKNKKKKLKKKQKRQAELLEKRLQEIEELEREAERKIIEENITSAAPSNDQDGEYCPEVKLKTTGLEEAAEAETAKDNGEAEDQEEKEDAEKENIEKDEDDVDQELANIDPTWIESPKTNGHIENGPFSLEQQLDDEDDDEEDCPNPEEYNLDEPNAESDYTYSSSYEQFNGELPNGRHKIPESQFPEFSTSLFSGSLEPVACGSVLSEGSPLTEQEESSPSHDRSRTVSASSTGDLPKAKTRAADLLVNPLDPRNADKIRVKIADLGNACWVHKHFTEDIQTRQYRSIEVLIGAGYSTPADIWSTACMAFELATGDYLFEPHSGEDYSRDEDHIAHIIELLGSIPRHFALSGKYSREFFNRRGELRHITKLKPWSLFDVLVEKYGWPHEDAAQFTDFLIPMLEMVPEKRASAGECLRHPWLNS

Consider `COc1cc(-c2cncc(-c3ccc(N4C[C@@H](C)N(C)[C@@H](C)C4)cc3)c2C)cc(F)c1C(N)=O` [Compound 26c, 2-Fluoro-6-methoxy-4-(4-methyl-5-(4-((3R,5S)-3,4,5-trimethylpiperazin-1-yl)phenyl)pyridin-3-yl)benzamide], for which the remaining activity at 1 µM on SRPK2 worked out at 121%; on HIPK3 it was 90.4%; at MARK4 it was 96.8%; at RSK3 it was 101%; at LCK2/ICK, 97.5%; at CDK5/p35, 97.6%. The “% enzyme activity” value at GRK2 is on record as 99.17%; at RSK1 it was 101.00%; on DAPK1, 96.25%.

As for `COc1cc(-c2cncc(-c3ccc(N4CCN(C)CC4)cc3)c2C)cc(F)c1C(N)=O` [Compound 26a, 2-Fluoro-6-methoxy-4-(4-methyl-5-(4-(4-methylpiperazin-1-yl)phenyl)pyridin-3-yl)benzamide], the remaining activity at 1 µM came to 97.8% on SRPK2; 97.8% on HIPK3; 83.7% on MARK4; 92.2% on RSK3; 108% at LCK2/ICK; 96.2% at CDK5/p35. The “% enzyme activity” value on GRK2 is 103.58%; on RSK1, 97.99%; at DAPK1 it was 94.56%.
